Two molecules from patent US11078189B2, “Pharmaceutical compounds” (REVIRAL LIMITED, priority 2017, dated 2021) can be followed below.

Data set [1] concerns the target T1, RSV fusion (pCDNA3.1_A2_F in HEK 293T cells) (Human respiratory syncytial virus A, UniProt P03420).
T1 construct: expressed in transfected cells; host or cells: HEK 293T (ECACC 12022001)
Briefly: RSV fusion assay. The data set is classed as cell-based. The protocol:
HEK 293T ((ECACC 12022001) cells were cultured in T75 culture flasks in Dulbecco's medium (DMEM) containing 10% Foetal Bovine serum (FBS), 50 units per mL Penicillin and 50 μg/mL Streptomycin and warmed to 37° C. prior to use. The cells were passaged by first washing briefly with 5 mL Phosphate buffered saline (PBS), followed by addition of 2 mL of Trypsin Ethylenediaminetetraacetic acid (EDTA) to detach the cells. Once cells had detached from the flask, 8 mL media was then added to and the cells dispersed via pipetting against the bottom of the flask.
The cells were counted and diluted to 3×10^5 cells/ml in fresh media. Two T75 flasks were each seeded with 15.6 mL diluted cells, cells were also subcultured at a ratio of between 1:2 and 1:10, to continue the stock. The flasks were then incubated for 24 h at 37° C. and 5% CO2.
The plasmid DNA (for pFR-Luc and pcDNA3. 1_Gal4/NFKB) to be transfected into the HEK 293T cells was first prepared in serum free media (Opti-MEM, Invitrogen), containing the transfection reagent FuGENE® 6 (Promega). Serum free media was placed in a 1.5 mL eppendorf tube then the FuGENE 6 was added into the media. The tube was vortexed for 1 s before being incubated at RT for 5 min. 7.79 ng of both pFR_luc and pCDNA3.1_A2_F plasmid DNA were added to tube 1 and 7.79 ng of pCDNA3.1_GAL4-NF-κB plasmid to tube 2. The tubes were vortexed for 1 second and then incubated at room temperature for 15 min. Each transfection mixture was then added into the media of one of the T75 flasks of 293T cells. Cells were cultured for 24h at 37° C., 5% CO2 in a humidified incubator.
Compounds were diluted (in a polypropylene round-bottomed 96 well plate) 1:3 in a twelve point dilution curve to give top [final] of either 25 μM, 3 μM, 1 μM or 500 nM. A control compound was included in every assay at a top concentration of 3 μM. Transfected cells were counted and diluted to 4×10^5 cells/mL in fresh media. 50 μL of transfection population 1 were added to all wells of the 96 well flat bottom white opaque assay plates. 100 μL diluted compound (2 rows per compound), control compound (one row) and controls (DMSO (0% inhibition, four wells), 3 μM positive control (100% inhibition, four wells) and media (transfection population 1 only, four wells) were added to the appropriate wells. 50 μL of the diluted (4×10^5 cells/mL) population 2 cells when then added to all wells, except the four wells of transfection population 1 only where an extra 50 μL of this cells population was added.
The plates were then incubated for 24 h at 37° C. and 5% CO2. After this time, 100 μL was removed from all wells and 60 μL of ONE-Glo™ (Promega) reagent, pre-equilibrated to room temperature, was added. Plates were then incubated for 3 min at room temperature before luminescence was read, using the ONE-Glo protocol, on the GloMax Explorer System (Promega) multimode reader. Analysis was carried out in Dotmatics software. All raw data were background subtracted (subtraction of mean 3 μM positive control value), before IC50 calculation.

The nature of data set [2]: Liver microsomal stability, rat. Type of data set: in vitro ADME. Conditions: pooled liver microsomes, pH 7.4; rat liver microsomes 0.5 mg/mL; 3 μM compound; read-out: Liver Microsoinal Stability t1/2, rat. The protocol: (§1) Pooled liver microsomes are purchased from a reputable commercial supplier and stored at −80° C. prior to use. Microsomes (final protein concentration 0.5 mg/mL), 0.1 M phosphate buffer pH 7.4 and test compound (final substrate concentration 3 μM; final DMSO concentration 0.25%) are pre-incubated at 37° C. prior to the addition of NADPH (final concentration 1 mM) to initiate the reaction. The final incubation volume is 50 uL. A control incubation is included for each compound tested where 0.1 M phosphate buffer pH 7.4 is added instead of NADPH (minus NADPH). Two control compounds are included with each species. All incubations are performed singularly for each test compound. Each compound is incubated for 0, 5, 15, 30 and 45 min. The control (minus NADPH) is incubated for 45 min only. The reactions are stopped by transferring 20 μL of incubate to 60 μL MeOH at the appropriate time points. The termination plates are centrifuged at 2,500 rpm for 20 min at 4° C. to precipitate the protein. Following protein precipitation, the sample supernatants are combined in cassettes of up to 4 compounds, internal standard is added and samples analysed by LC-MS/MS. From a plot of In peak area ratio (compound peak area/internal standard peak area) against time, the gradient of the line is determined. Subsequently, half-life and intrinsic clearance are calculated.

Data set [3] can be described thus: Liver microsomal stability, human. The data set is classed as in vitro ADME. Conditions: pooled liver microsomes, pH 7.4; human liver microsomes 0.5 mg/mL; 3 μM compound; read-out: Liver Microsoinal Stability t1/2, human. The protocol:
as §1
(Liver microsomes are a subcellular fraction often used to study metabolism.)

The next data set has as its target T2, CYP1A2 (Homo sapiens, UniProt P05177).
T2 construct: from tissue; host or cells: human liver microsomes
T2 sequence (P05177 1-516): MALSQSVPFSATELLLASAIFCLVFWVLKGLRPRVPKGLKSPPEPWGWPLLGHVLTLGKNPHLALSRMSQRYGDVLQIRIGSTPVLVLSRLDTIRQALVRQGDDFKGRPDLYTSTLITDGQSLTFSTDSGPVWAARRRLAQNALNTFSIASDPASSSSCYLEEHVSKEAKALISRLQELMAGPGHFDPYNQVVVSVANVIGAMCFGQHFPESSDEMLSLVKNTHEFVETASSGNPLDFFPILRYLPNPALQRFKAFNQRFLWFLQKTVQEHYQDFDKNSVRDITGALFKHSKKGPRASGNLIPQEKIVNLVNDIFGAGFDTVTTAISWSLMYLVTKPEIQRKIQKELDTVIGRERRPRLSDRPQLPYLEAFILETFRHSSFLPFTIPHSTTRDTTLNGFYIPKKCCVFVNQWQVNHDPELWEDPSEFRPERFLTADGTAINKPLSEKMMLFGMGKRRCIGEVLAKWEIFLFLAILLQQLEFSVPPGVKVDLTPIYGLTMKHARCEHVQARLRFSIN
The data set can be described thus: Cytochrome P450 inhibition CYP1A2. The data set is classed as in vitro ADME. The following applies: human liver microsomes. The method, then:
(§2) Test compound (0.1, 0.25, 1, 2.5, 10, 25 μM in DMSO; final DMSO concentration 0.3%) was incubated with human liver microsomes (0.25 mg/mL) and NADPH (1 mM) in the presence of a cytochrome P450 isoform-specific probe substrate. The metabolites were monitored by LC-MS/MS and a decrease in the formation of the metabolite compared to the vehicle control used to calculate an IC50 value (test compound concentration which produces 50% inhibition). A cytochrome P450 isoform-specific selective inhibitor was screened alongside the test compounds as a positive control.

A further data set deals with T3, CYP2C9 (Homo sapiens, UniProt P11712).
T3 construct: from tissue; host or cells: human liver microsomes
The data set can be described thus: Cytochrome P450 inhibition CYP2C9. Type of data set: in vitro ADME. Conditions: human liver microsomes. The protocol: as §2

What is called IC50 is the concentration needed to halve the response being measured. Read a low IC50 as greater potency in that assay.

T1 sequence (P03420 26-109): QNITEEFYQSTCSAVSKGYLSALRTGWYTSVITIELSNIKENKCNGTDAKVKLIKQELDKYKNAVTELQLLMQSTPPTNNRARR
T1 sequence (P03420 137-574): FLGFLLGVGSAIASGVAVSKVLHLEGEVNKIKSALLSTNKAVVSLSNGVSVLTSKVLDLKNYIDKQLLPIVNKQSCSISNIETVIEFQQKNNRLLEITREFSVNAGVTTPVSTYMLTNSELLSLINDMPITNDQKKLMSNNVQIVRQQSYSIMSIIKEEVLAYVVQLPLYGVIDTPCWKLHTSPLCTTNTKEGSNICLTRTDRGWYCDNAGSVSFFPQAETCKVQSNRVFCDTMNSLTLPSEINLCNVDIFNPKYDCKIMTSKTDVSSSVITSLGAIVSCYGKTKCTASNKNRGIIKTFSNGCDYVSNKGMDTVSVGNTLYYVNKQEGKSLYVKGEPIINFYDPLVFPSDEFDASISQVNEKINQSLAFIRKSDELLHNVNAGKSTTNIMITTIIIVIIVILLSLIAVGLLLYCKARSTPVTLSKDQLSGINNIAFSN
T3 sequence (P11712 whole entry): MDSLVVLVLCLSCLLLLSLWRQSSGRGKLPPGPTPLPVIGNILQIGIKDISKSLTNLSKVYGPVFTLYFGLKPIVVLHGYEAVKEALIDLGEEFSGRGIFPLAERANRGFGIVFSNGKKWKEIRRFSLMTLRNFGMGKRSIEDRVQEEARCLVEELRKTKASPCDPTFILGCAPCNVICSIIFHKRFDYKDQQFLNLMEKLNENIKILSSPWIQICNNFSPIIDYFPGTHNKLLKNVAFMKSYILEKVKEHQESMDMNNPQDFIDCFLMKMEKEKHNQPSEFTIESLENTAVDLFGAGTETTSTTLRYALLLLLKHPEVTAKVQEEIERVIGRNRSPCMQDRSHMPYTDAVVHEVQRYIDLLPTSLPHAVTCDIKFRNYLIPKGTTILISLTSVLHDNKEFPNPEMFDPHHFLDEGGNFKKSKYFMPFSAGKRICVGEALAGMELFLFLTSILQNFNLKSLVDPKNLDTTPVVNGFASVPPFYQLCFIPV

As to `CS(=O)(=O)N1CCC(n2c(CN3C(=O)C4(CC4)c4ccc(F)cc43)nc3cc(Cl)ccc32)CC1` [Compound 33, 1′-{[5-Chloro-1-(1-methanesulfonylpiperidin-4-yl)-1H-1,3-benzodiazol-2-yl]methyl}-6′-fluoro-1′,2′-dihydrospiro[cyclopropane-1,3′-indole]-2′-one], the values for the IC50 (in data set [1]; on CYP1A2; against CYP2C9) were 3.3 nM, more than 25 µM and more than 25 µM, respectively. The half-life at 3 μM in data set [2] is 14.8 min; in data set [3], 486 min.
In data set [1], `CCS(=O)(=O)N1CCC(n2c(CN3C(=O)C4(CC4)c4ccc(F)cc43)nc3cc(Cl)ccc32)CC1` [Compound 35, 1′-({5-Chloro-1-[1-(ethanesulfonyl)piperidin-4-yl]-1H-1,3-benzodiazol-2-yl}methyl)-6′-fluoro-1′,2′-dihydrospiro[cyclopropane-1,3′-indole]-2′-one] yielded an IC50 of 5 nM. Also, the results for the half-life at 3 μM in data set [2] and in data set [3] were 5.5 min and 34.6 min, respectively.
